Test [1] has as its target B2 bradykinin receptor (Homo sapiens) (UniProt P30411). The test is described as follows: Displacement of [3H]bradykinin from human B2 bradykinin receptor expressed in SF21 cells at 5 ug/ml.
The species named for test [2] is Rattus norvegicus. The test is described as follows: Displacement of [3H]NPY from rat neuropeptide Y receptor at 5 ug/ml. For orientation: In a radioligand displacement assay an active substance lowers the binding of a labelled ligand.
The species entered for test [3] is Rattus norvegicus. The test is described as follows: Displacement of [125I]somatostatin from rat somatostatin receptor at 5 ug/ml.

Chain of B2 bradykinin receptor (Homo sapiens) (P30411 whole entry, looked up): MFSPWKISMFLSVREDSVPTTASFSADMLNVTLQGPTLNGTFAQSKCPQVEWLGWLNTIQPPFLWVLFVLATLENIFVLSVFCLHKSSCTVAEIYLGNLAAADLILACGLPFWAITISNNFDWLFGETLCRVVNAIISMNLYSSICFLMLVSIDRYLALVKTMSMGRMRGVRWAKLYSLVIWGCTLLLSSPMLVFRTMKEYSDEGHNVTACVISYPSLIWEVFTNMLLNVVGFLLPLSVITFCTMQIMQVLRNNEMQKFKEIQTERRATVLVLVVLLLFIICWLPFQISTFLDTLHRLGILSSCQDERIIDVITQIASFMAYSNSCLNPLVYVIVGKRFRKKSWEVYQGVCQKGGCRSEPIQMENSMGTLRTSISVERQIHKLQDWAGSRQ

`C[C@@H](C(=O)N/C=C/c1ccc(O)cc1)N1C(=O)[C@](O)(CCCNC(=N)N)[C@@H](CCNC(=N)N)[C@]1(O)C(=O)NCC(=O)N/C=C/c1ccc(O)cc1`: the Activity came out at 71% in test [1] and 80% in test [2].
`N=C(N)NCCC[C@@]1(O)C(=O)N(CC(=O)N/C=C/c2ccc(O)cc2)[C@@](O)(C(=O)NCC(=O)N/C=C/c2ccc(O)cc2)[C@@H]1CCNC(=N)N`: in test [3], the Activity was 77%.
Take `C[C@H](NC(=O)[C@@]1(O)[C@H](CCNC(=N)N)[C@@](O)(CCCNC(=N)N)C(=O)N1[C@@H](C)C(=O)N/C=C/c1ccc(O)cc1)C(=O)N/C=C/c1ccc(O)cc1`: the Activity in test [1], in test [3] and in test [2] was 35% in each case.
For `C[C@H](NC(=O)[C@@]1(O)[C@H](CCNC(=N)N)[C@@](O)(CCCNC(=N)N)C(=O)N1CC(=O)N/C=C/c1ccc(O)cc1)C(=O)N/C=C/c1ccc(O)cc1`, the results for the Activity in test [1], in test [3] and in test [2] were 52%, 62% and 57%, respectively.
